Tested on: U937 cells
Assay: Number of SLPI binding sites on PMA-induced U937 cells (Scatchard plot)
Assay type: cell-based, human
Details: PMA 25 ng per ml, 48 hours, versus non-induced cells
Description: U937 cells were induced by 13-phorbol-12-myristate acetate ("PMA").
U937 cells at an initial concentration of 10,000 cells per ml were placed in two flasks. PMA was added to one flask at a final concentration of 25 ng per ml. After 48 hours, cells were harvested from both flasks. Using the method of Dripps et al., J. Biol. Chem., Vol. 266, No. 16, pp. 10331-10336 (1991), and labelling with I-125, having a specific activity of 91.5 Curries per millimole, the number of SLPI binding sites was determined. […] In this experiment, the Kd in non-induced cells was 1.1 lnM; The Kd in PMA-induced cells was 1.0 nM. The reduction in the number of SLPI binding sites in the PMA-induced cells is consistent with SLPI binding to elastase and cathepsin G on the cell surface.

SMILES: CCCCCCCCCCCCCC(=O)O[C@@H]1[C@@H](C)[C@@]2(O)[C@@H](C=C(CO)C[C@]3(O)C(=O)C(C)=C[C@@H]23)[C@@H]2C(C)(C)[C@]12OC(C)=O [PMA, 13-phorbol-12-myristate acetate]
- Reduction in the number of SLPI binding sites: 70%

Source: US6017880A, “Inhibition of retrovirus infection” (Amgen Inc., priority 1995, dated 2000)
